Here are results for eight compounds from ChEMBL document CHEMBL1201862, “PubChem BioAssay data set” (2004).

Molecules are shown by their SMILES.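 Cells were grown in 96-well plates and exposed to each compound for 48 hours at five concentrations; endpoints were interpolated linearly between bracketing concentrations, or set to the highest concentration if not reached. At the GI50, growth is halved.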 Calls of active or inactive are those of the source. No stated cut-off is given here; in the data, active = GI50 up to about 1.1 µM and inactive = higher. Bounds are passed on as bounds.

Test systems include A549; BT-549; CAKI-1; EKVX; HCT-116; HCT-15; MDA-MB-231; MOLT-4; Malme-3M; OVCAR-3; SF-268; SF-295; SK-MEL-28; SK-MEL-5; SNB-19; SNB-75; SW-620; COLO 205; Hs-578T; MCF7.
Common to all, as to assay: growth of human tumour cells (NCI), 48 h

Turning to `O=C(O)c1cc(O)nc(SCc2ccccc2)n1`, the GI50 is > 100 µM (inactive) in the test on A549; > 100 µM (inactive) with BT-549; > 100 µM (inactive) in the test on CAKI-1; > 100 µM (inactive) in the test on EKVX; > 100 µM (inactive) with HCT-116; over 100 µM in the test with HCT-15. Besides, the GI50 with MDA-MB-231, with MOLT-4, in the test on Malme-3M, with OVCAR-3, with SF-268 and in the test with SF-295 was > 100 µM (inactive) each time. Besides, the GI50 in the test with SK-MEL-28, with SK-MEL-5, in the test on SNB-19, in the test with SNB-75 and in the test on SW-620 was > 100 µM (inactive) in each case.
With `CCCCOC(=O)N[C@H]1CCc2cc(OC)c(OC)c(OC)c2-c2ccc(SC)c(=O)cc21`, the GI50 is < 0.01 µM (active) in the test with A549; < 0.01 µM (active) in the test with CAKI-1; < 0.01 µM (active) in the test with COLO 205; 16.3 µM (inactive) in the test on EKVX; < 0.01 µM (active) in the test with HCT-116; under 0.01 µM with HCT-15. The GI50 with Hs-578T, with MCF7, with MDA-MB-231, in the test on MOLT-4, in the test on Malme-3M and in the test with OVCAR-3 was < 0.01 µM (active) in each case. Besides, the GI50 is < 0.01 µM (active) in the test with SF-268; < 0.01 µM (active) with SF-295; 0.752 µM (active) with SK-MEL-28; < 0.01 µM (active) in the test on SK-MEL-5; < 0.0153 µM (active) in the test on SNB-19; < 0.0109 µM (active) in the test with SNB-75. The GI50 in the test with SW-620 is < 0.01 µM (active).
`CC(C)(C)C(=O)C(C#N)C(=O)C(C)(C)C`: the GI50 with A549 was > 100 µM (inactive); in the test on CAKI-1, > 100 µM (inactive); with COLO 205, > 100 µM (inactive); with EKVX it was > 100 µM (inactive); with HCT-116, > 100 µM (inactive); in the test on HCT-15, over 100 µM. Moreover, the GI50 with Hs-578T, in the test with MCF7, with MDA-MB-231, in the test on MOLT-4, in the test on Malme-3M and with OVCAR-3 was > 100 µM (inactive) each time. For the same compound, the GI50 in the test with SF-268, with SF-295, with SK-MEL-28, with SK-MEL-5, in the test on SNB-19 and in the test on SNB-75 was > 100 µM (inactive) throughout. The GI50 with SW-620 is > 100 µM (inactive).
For the compound `Cc1ccc(S(=O)(=O)Nn2c(S)c(C#N)c(-c3ccc(Cl)cc3)c(C#N)c2=O)cc1`, the GI50 is 43.7 µM (inactive) in the test on A549; 17.3 µM (inactive) in the test on BT-549; 32.7 µM (inactive) in the test with CAKI-1; 35.6 µM (inactive) with COLO 205; 32.9 µM (inactive) in the test with EKVX; 28.4 µM (inactive) with HCT-116. Moreover, the GI50 in the test with HCT-15 is 25.9 µM; with MCF7, 44.6 µM (inactive); with MDA-MB-231, 36.2 µM (inactive); in the test with MOLT-4, 24.7 µM (inactive); in the test with Malme-3M it was 30.8 µM (inactive); with OVCAR-3, 53.6 µM (inactive). The GI50 in the test on SF-295 is 32.9 µM (inactive); with SK-MEL-28, 31.2 µM (inactive); in the test on SK-MEL-5, 16.4 µM (inactive); in the test on SNB-19, 35.4 µM (inactive); in the test on SNB-75, 33.8 µM (inactive); with SW-620, 22.4 µM (inactive).
On to `COc1ccc2c(c1)N(C(C)=O)CN1C(=O)CCC21` (stereo unspecified), for which the GI50 in the test on A549 is > 100 µM (inactive); in the test with CAKI-1, > 100 µM (inactive); in the test with COLO 205 it was > 100 µM (inactive); in the test with EKVX, > 100 µM (inactive); in the test with HCT-116 it was > 100 µM (inactive); in the test with HCT-15, over 100 µM. The GI50 was > 100 µM (inactive) in the test on Hs-578T; > 100 µM (inactive) in the test with MCF7; > 100 µM (inactive) in the test on MDA-MB-231; 46 µM (inactive) in the test on MOLT-4; > 100 µM (inactive) in the test on Malme-3M; > 100 µM (inactive) in the test on OVCAR-3. The GI50 in the test with SF-268, with SF-295, with SK-MEL-28, with SK-MEL-5, in the test with SNB-19 and in the test with SNB-75 was > 100 µM (inactive) throughout. The GI50 with SW-620 was > 100 µM (inactive).
Regarding `OCc1ccc2c(c1)CC1(Cc3ccccc3C1)C2`, the GI50 in the test on A549 is 20.6 µM (inactive); with BT-549, 3.77 µM (inactive); in the test with CAKI-1, 15.9 µM (inactive); with COLO 205, 15.6 µM (inactive); in the test on EKVX it was 26.1 µM (inactive); with HCT-116, 14.3 µM (inactive). Further, the GI50 is 25.8 µM with HCT-15; 15.8 µM (inactive) in the test on Hs-578T; 10.1 µM (inactive) with MDA-MB-231; > 10 µM (inactive) in the test with MOLT-4; 13.6 µM (inactive) with Malme-3M; 23 µM (inactive) in the test on OVCAR-3. The GI50 in the test on SF-268 is 18.1 µM (inactive); in the test on SF-295, 18.1 µM (inactive); with SK-MEL-28, 19.3 µM (inactive); in the test with SK-MEL-5, 11.5 µM (inactive); in the test on SNB-75, 13.5 µM (inactive); in the test on SW-620, 18.4 µM (inactive).
`OCC1OC(n2nc(-c3ccccc3)nc2-c2cnccn2)C(O)C1O` (stereo unspecified): the GI50 in the test with A549 was > 100 µM (inactive); with BT-549 it was > 100 µM (inactive); with COLO 205, > 100 µM (inactive); in the test on EKVX it was > 100 µM (inactive); in the test with HCT-116 it was > 100 µM (inactive); in the test with HCT-15 it was over 100 µM. The GI50 in the test with MCF7, in the test on MDA-MB-231, in the test with MOLT-4, with OVCAR-3, with SF-268 and in the test on SF-295 was > 100 µM (inactive) each time. The GI50 in the test with SK-MEL-28, in the test with SK-MEL-5, with SNB-19, with SNB-75 and with SW-620 was > 100 µM (inactive) throughout.
Regarding `COc1cc2c(cc1OC)C(OC)N(C)c1c-2ccc2cc3c(cc12)OCO3` (stereo unspecified), the GI50 in the test on A549 is 0.201 µM (active); in the test with BT-549, 3.06 µM (inactive); in the test with CAKI-1, 1.98 µM (inactive); with COLO 205, 0.733 µM (active); with EKVX, 1.82 µM (inactive); in the test on HCT-116 it was 1.66 µM (inactive). Moreover, the GI50 was 40.7 µM in the test on HCT-15; 1.24 µM (inactive) in the test with MCF7; 1.4 µM (inactive) in the test with MDA-MB-231; 0.611 µM (active) with MOLT-4; 3.51 µM (inactive) with Malme-3M; 1.5 µM (inactive) in the test on OVCAR-3. Besides, the GI50 in the test with SF-268 is 0.094 µM (active); with SF-295, 2.82 µM (inactive); with SK-MEL-28, 4.28 µM (inactive); with SK-MEL-5 it was 1.8 µM (inactive); in the test on SNB-19 it was 0.665 µM (active); in the test with SNB-75, 0.708 µM (active). Moreover, the GI50 in the test with SW-620 was 0.571 µM (active).
